In patent US9889115B2, “Fitness assay and associated methods” (priority 1998, dated 2018):

Tests used:
wild-type HIV protease = wild-type HIV protease (Human immunodeficiency virus type 1 group M subtype B, UniProt P04585); assay: biochemical
wild-type HIV = assay: wild-type antiretroviral activity (Table 4); conditions: Human immunodeficiency virus 1, read-out: ID50
HIV-1LAI = assay: PHA-PBMC assay, p24 Gag protein production; assay type: cell-based; conditions: Human immunodeficiency virus 1; HIV-1LAI, SI; PHA-PBMC, p24 (Table 3)
[1] = system: multidrug-resistant strains of HIV-1; assay: PHA-PBMC p24 assay, panel of eight multidrug-resistant clinical isolates; assay type: cell-based; conditions: eight multidrug-resistant clinical isolates of Table 3
Protocol: (§1) The patient profiles are shown below in Table 2.
(§2) To determine protease inhibitory activity against multidrug resistant HIV, the IC50's were measured against a panel of clinically isolated mutant HIV isolates.
(§3) All drug sensitivities were performed in triplicate. In order to determine whether the HIV isolates were syncitium inducing (SI) or non-syncitium inducing (NSI), an aliquot of viral stock supernatant, containing 100 TCID50, was cultured with 1×10^5 MT-2 cells in a 12-well plate. Cultures were maintained for four weeks and were examined for syncytium formation twice a week.

[2] = system: multidrug-resistant HIV-1 clinical isolate, patient 12; assay: microbe, parasite or virus in culture; assay type: cell-based; conditions: Human immunodeficiency virus 1; Patient Isolate 12
Protocol: (§4) The mutant multidrug-resistant HIV-1 strains corresponding to each patient, numbered 9-35, were genetically analyzed in terms of the nucleic acid sequences of the protease (PR) and a portion of the reverse transcriptase (RT) genes from which mutations in these enzymes were determined. The mutations in the protease and reverse transcriptase of the multidrug-resistant viruses isolated from each patient are shown below in Table 9b.

[3] = system: multidrug-resistant HIV-1 clinical isolate, patient 28; assay: microbe, parasite or virus in culture; assay type: cell-based; conditions: Human immunodeficiency virus 1; Patient Isolate 28
Protocol: as §4

[4] = system: multidrug-resistant HIV-1 clinical isolate, patient 16; assay: microbe, parasite or virus in culture; assay type: cell-based; conditions: Human immunodeficiency virus 1; Patient Isolate 16
Protocol: as §4

[5] = system: multidrug-resistant HIV-1 clinical isolate, patient 19; assay: microbe, parasite or virus in culture; assay type: cell-based; conditions: Human immunodeficiency virus 1; Patient Isolate 19
Protocol: as §4

[6] = system: multidrug-resistant HIV-1 clinical isolate, patient 33; assay: microbe, parasite or virus in culture; assay type: cell-based; conditions: Human immunodeficiency virus 1; Patient Isolate 33
Protocol: as §4

[7] = system: multidrug-resistant HIV-1 clinical isolate, patient 9; assay: microbe, parasite or virus in culture; assay type: cell-based; conditions: Human immunodeficiency virus 1; Patient Isolate 9
Protocol: as §4

[8] = system: multidrug-resistant HIV-1 clinical isolate, patient 13; assay: microbe, parasite or virus in culture; assay type: cell-based; conditions: Human immunodeficiency virus 1; Patient Isolate 13
Protocol: as §4

[9] = system: multidrug-resistant HIV-1 clinical isolate, patient 31; assay: microbe, parasite or virus in culture; assay type: cell-based; conditions: Human immunodeficiency virus 1; Patient Isolate 31
Protocol: as §4

[10] = system: multidrug-resistant HIV-1 clinical isolate, patient 10; assay: microbe, parasite or virus in culture; assay type: cell-based; conditions: Human immunodeficiency virus 1; Patient Isolate 10
Protocol: as §4

[11] = system: multidrug-resistant HIV-1 clinical isolate, patient 32; assay: microbe, parasite or virus in culture; assay type: cell-based; conditions: Human immunodeficiency virus 1; Patient Isolate 32
Protocol: as §4

[12] = system: multidrug-resistant HIV-1 clinical isolate, patient 14; assay: microbe, parasite or virus in culture; assay type: cell-based; conditions: Human immunodeficiency virus 1; Patient Isolate 14
Protocol: as §4

[13] = system: multidrug-resistant HIV-1 clinical isolate, patient 20; assay: microbe, parasite or virus in culture; assay type: cell-based; conditions: Human immunodeficiency virus 1; Patient Isolate 20
Protocol: as §4

[14] = system: multidrug-resistant HIV-1 clinical isolate, patient 11; assay: microbe, parasite or virus in culture; assay type: cell-based; conditions: Human immunodeficiency virus 1; Patient Isolate 11
Protocol: as §4

[15] = system: multidrug-resistant HIV-1 clinical isolate, patient 35; assay: microbe, parasite or virus in culture; assay type: cell-based; conditions: Human immunodeficiency virus 1; Patient Isolate 35
Protocol: as §4

[16] = system: multidrug-resistant HIV-1 clinical isolate, patient 30; assay: microbe, parasite or virus in culture; assay type: cell-based; conditions: Human immunodeficiency virus 1; Patient Isolate 30
Protocol: as §4

[17] = system: multidrug-resistant HIV-1 clinical isolate, patient 27; assay: microbe, parasite or virus in culture; assay type: cell-based; conditions: Human immunodeficiency virus 1; Patient Isolate 27
Protocol: as §4

[18] = system: multidrug-resistant HIV-1 clinical isolate, patient 17; assay: microbe, parasite or virus in culture; assay type: cell-based; conditions: Human immunodeficiency virus 1; Patient Isolate 17
Protocol: as §4

[19] = system: multidrug-resistant HIV-1 clinical isolate, patient 29; assay: microbe, parasite or virus in culture; assay type: cell-based; conditions: Human immunodeficiency virus 1; Patient Isolate 29
Protocol: as §4

[20] = system: multidrug-resistant HIV-1 clinical isolate, patient 18; assay: microbe, parasite or virus in culture; assay type: cell-based; conditions: Human immunodeficiency virus 1; Patient Isolate 18
Protocol: as §4

[21] = system: multidrug-resistant HIV-1 clinical isolate, patient 21; assay: microbe, parasite or virus in culture; assay type: cell-based; conditions: Human immunodeficiency virus 1; Patient Isolate 21
Protocol: as §4

[22] = system: multidrug-resistant HIV-1 clinical isolate, patient 15; assay: microbe, parasite or virus in culture; assay type: cell-based; conditions: Human immunodeficiency virus 1; Patient Isolate 15
Protocol: as §4

[23] = system: multidrug-resistant HIV-1 clinical isolate, patient 23; assay: microbe, parasite or virus in culture; assay type: cell-based; conditions: Human immunodeficiency virus 1; Patient Isolate 23
Protocol: as §4

HIV-1BAL = assay: PHA-PBMC assay, p24 Gag protein production; assay type: cell-based; conditions: Human immunodeficiency virus 1; HIV-1BAL, NSI; PHA-PBMC, p24 (Table 3)
[24] = system: multidrug-resistant HIV-1 clinical isolate, patient 6; assay: PHA-PBMC assay, p24 Gag protein production; assay type: cell-based; conditions: Human immunodeficiency virus 1; Patient/Isolate code 6; PHA-PBMC, p24
Protocol: as §1, §2, §3

[25] = system: multidrug-resistant HIV-1 clinical isolate, patient 5; assay: PHA-PBMC assay, p24 Gag protein production; assay type: cell-based; conditions: Human immunodeficiency virus 1; Patient/Isolate code 5; PHA-PBMC, p24
Protocol: as §1, §2, §3

[26] = system: multidrug-resistant HIV-1 clinical isolate, patient 2; assay: PHA-PBMC assay, p24 Gag protein production; assay type: cell-based; conditions: Human immunodeficiency virus 1; Patient/Isolate code 2; PHA-PBMC, p24
Protocol: as §1, §2, §3

[27] = system: multidrug-resistant HIV-1 clinical isolate, patient 3; assay: PHA-PBMC assay, p24 Gag protein production; assay type: cell-based; conditions: Human immunodeficiency virus 1; Patient/Isolate code 3; PHA-PBMC, p24
Protocol: as §1, §2, §3

HIV-1ERS104pre = assay: PHA-PBMC assay, p24 Gag protein production; assay type: cell-based; conditions: Human immunodeficiency virus 1; HIV-1ERS104pre, SI; PHA-PBMC, p24
Protocol: as §1, §2, §3

[28] = system: multidrug-resistant HIV-1 clinical isolate, patient 1; assay: PHA-PBMC assay, p24 Gag protein production; assay type: cell-based; conditions: Human immunodeficiency virus 1; Patient/Isolate code 1; PHA-PBMC, p24
Protocol: as §1, §2, §3

[29] = system: multidrug-resistant HIV-1 clinical isolate, patient 7; assay: PHA-PBMC assay, p24 Gag protein production; assay type: cell-based; conditions: Human immunodeficiency virus 1; Patient/Isolate code 7; PHA-PBMC, p24
Protocol: as §1, §2, §3

[30] = system: multidrug-resistant HIV-1 clinical isolate, patient 4; assay: PHA-PBMC assay, p24 Gag protein production; assay type: cell-based; conditions: Human immunodeficiency virus 1; Patient/Isolate code 4; PHA-PBMC, p24
Protocol: as §1, §2, §3

[31] = system: multidrug-resistant HIV-1 clinical isolate, patient 8; assay: PHA-PBMC assay, p24 Gag protein production; assay type: cell-based; conditions: Human immunodeficiency virus 1; Patient/Isolate code 8; PHA-PBMC, p24
Protocol: as §1, §2, §3

[32] = system: multidrug-resistant HIV-1 clinical isolate, patient 34; assay: IC50 against multidrug-resistant clinical isolates (Table 9a); assay type: cell-based; conditions: Human immunodeficiency virus 1
Protocol: as §4

[33] = system: multidrug-resistant HIV-1 clinical isolate, patient 22; assay: as above; assay type: cell-based; conditions: Human immunodeficiency virus 1
Protocol: as §4

wild-type HIV-1 (WT) = assay: IC50 against wild-type HIV-1 (Table 9a); assay type: cell-based; conditions: Human immunodeficiency virus 1; (WT)

SMILES: COc1ccc(S(=O)(=O)N(CC(C)C)CC(O)C(Cc2ccccc2)NC(=O)OC2COC3OCCCC23)cc1 (centres unmarked)
- Ki (wild-type HIV protease): 2.2 nM
- IC50 (wild-type HIV): 4.5 nM

SMILES: Cc1ccc(S(=O)(=O)N(CC(C)C)CC(O)C(Cc2ccccc2)NC(=O)OC2COC3OCCC23)cc1 (centres unmarked)
- Ki (wild-type HIV protease): 1.2 nM
- IC50 (wild-type HIV): 3.5 nM

SMILES: CC(C)c1nc(CN(C)C(=O)N[C@H](C(=O)N[C@@H](Cc2ccccc2)C[C@H](O)[C@H](Cc2ccccc2)NC(=O)OCc2cncs2)C(C)C)cs1 [RTV, Ritonavir]
- IC50 (HIV-1LAI): 4.7 nM
- potency against the multidrug-resistant strains (in words) [1]: virtually inactive
- IC50 [2]: 2470 nM
- IC50 [3]: 2660 nM
- IC50 [4]: 1340 nM
- IC50 [5]: 2940 nM
- IC50 [6]: 180 nM
- IC50 [7]: 530 nM
- IC50 [8]: 1640 nM
- IC50 [9]: 850 nM
- IC50 [10]: 2030 nM
- IC50 [11]: 370 nM
- IC50 [12]: 40 nM
- IC50 [13]: 1900 nM
- IC50 [14]: 10 nM
- IC50 [15]: 2600 nM
- IC50 [16]: 1030 nM
- IC50 [17]: 2970 nM
- IC50 [18]: 870 nM
- IC50 [19]: 360 nM
- IC50 [20]: 3020 nM
- IC50 [21]: 2180 nM
- IC50 [22]: 1140 nM
- IC50 [23]: 1820 nM
- IC50 (HIV-1BAL): 18 nM
- IC50 [24]: > 1000 nM
- IC50 [25]: > 1000 nM
- IC50 [26]: > 1000 nM
- IC50 [27]: > 1000 nM
- IC50 (HIV-1ERS104pre): 55 nM
- IC50 [28]: > 1000 nM
- IC50 [29]: > 1000 nM
- IC50 [30]: > 1000 nM
- IC50 [31]: > 1000 nM
- IC50 [32]: 3380 nM
- IC50 [33]: 560 nM
- IC50 (wild-type HIV-1 (WT)): 19 nM
